Measured values reported in ChEMBL document CHEMBL3792383, “C-cinnamoyl glycosides as a new class of anti-filarial agents” (Eur J Med Chem, 2016).
Values after ≈ are worked out from the molar mass of the structure shown. Active and inactive are the calls of the source. No cut-off for these calls is given here.

Legend:
Setaria cervi [1] = test: Antifilarial activity against microfilaria of Setaria cervi assessed as inhibition of worm viability after 24 hrs by MTT assay; format: functional
Setaria cervi [2] = test: Antifilarial activity against microfilaria of Setaria cervi assessed as inhibition of relative movability after 24 hrs by microscopy; format: functional, organism-based
[3] = Selectivity index, ratio of CC50 for human normal kidney epithelial cells to IC50 for microfilaria of Setaria cervi; format: functional, Epithelial cell
[4] = Cytotoxicity against human normal kidney epithelial cells after 24 hrs by MTT assay; format: cell-based, Epithelial cell
Setaria cervi [5] = test: Potency index, ratio of ivermectin LC50 to compound LC50 for microfilaria of Setaria cervi by MTT assay; format: functional
Setaria cervi [6] = test: Induction of cuticular sheath damage in microfilaria of Setaria cervi after 24 hrs by scanning electron microscopy; format: functional, organism-based
Setaria cervi [7] = test: Induction of apoptosis in microfilaria of Setaria cervi assessed as DNA fragmentation after 24 hrs by Hoechst 33342 staining-based fluorescence microscopy; format: functional, organism-based
Setaria cervi [8] = test: Induction of apoptosis in microfilaria of Setaria cervi assessed as DNA fragmentation after 24 hrs by propidium iodide staining-based inverted fluorescence microscopy; format: functional, organism-based
[9] = Antifilarial activity against microfilaria of Wuchereria bancrofti assessed as inhibition of relative movability after 24 hrs by microscopy; format: functional
Setaria cervi [10] = test: Induction of apoptosis in microfilaria of Setaria cervi assessed as chromatin condensation after 24 hrs by propidium iodide staining-based inverted fluorescence microscopy; format: functional, organism-based
Setaria cervi [11] = test: Induction of apoptosis in microfilaria of Setaria cervi assessed as chromatin condensation after 24 hrs by Hoechst 33342 staining-based fluorescence microscopy; format: functional, organism-based
Wuchereria bancrofti = test: Antifilarial activity against microfilaria of Wuchereria bancrofti assessed as reduction in worm viability at 18 nM after 24 hrs by MTT assay; format: functional

Row | Compound | LC50 (Setaria cervi [1]) [nM] | IC50 (Setaria cervi [2]; Setaria cervi, 24 h) [nM] | MIC (Setaria cervi [2]; Setaria cervi, 24 h) [µM] | further results
1 | CC(=O)OC[C@H]1O[C@@H](CC(=O)/C=C/c2ccc(C)cc2)[C@H](OC(C)=O)[C@@H](OC(C)=O)[C@@H]1OC(C)=O | 42.2 | 13.6 | 0.00581 (≈ 2.85 ng/mL) | Ratio CC50/IC50 [3]: 0.24; CC50 at 24 h [4]: 3.18 nM
2 | COc1cc(/C=C/C(=O)C[C@@H]2O[C@H](COC(C)=O)[C@@H](OC(C)=O)[C@H](OC(C)=O)[C@H]2OC(C)=O)ccc1O | 500 | 185 | 0.0722 (≈ 37.7 ng/mL) | 
3 | COc1ccc(/C=C/C(=O)C[C@@H]2O[C@H](COC(C)=O)[C@@H](OC(C)=O)[C@H](OC(C)=O)[C@H]2OC(C)=O)cc1OCc1ccccc1 | > 900 | 250 | 0.123 (≈ 75.2 ng/mL) | 
4 | CC(=O)OC[C@H]1O[C@@H](CC(=O)/C=C/c2ccc(N(C)C)cc2)[C@H](OC(C)=O)[C@@H](OC(C)=O)[C@@H]1OC(C)=O | 886 | 226 | 0.113 (≈ 58.9 ng/mL) | 
5 | COc1cccc(/C=C/C(=O)C[C@@H]2O[C@H](COC(C)=O)[C@@H](OC(C)=O)[C@H](OC(C)=O)[C@H]2OC(C)=O)c1 | > 900 | > 900 | > 0.9 | 
6 | CC(=O)OC[C@H]1O[C@@H](CC(=O)/C=C/c2ccc([N+](=O)[O-])s2)[C@H](OC(C)=O)[C@@H](OC(C)=O)[C@@H]1OC(C)=O | 47.5 | 21.3 | 0.0106 (≈ 5.6 ng/mL) | 
7 | IVERMECTIN |  |  |  | IC50 (Setaria cervi [2]): 19.5 nM
8 | CC(=O)OC[C@H]1O[C@@H](CC(=O)/C=C/c2ccc3ccccc3c2)[C@H](OC(C)=O)[C@@H](OC(C)=O)[C@@H]1OC(C)=O | > 900 | > 900 | > 0.9 | 
9 | CC(=O)OC[C@H]1O[C@@H](CC(=O)/C=C/c2ccco2)[C@H](OC(C)=O)[C@@H](OC(C)=O)[C@@H]1OC(C)=O | 163 | 46.6 | 0.0153 (≈ 7.12 ng/mL) | 
10 | CC(=O)OC[C@H]1O[C@@H](CC(=O)/C=C/c2ccccc2)[C@H](OC(C)=O)[C@@H](OC(C)=O)[C@@H]1OC(C)=O | 108 | 38.8 | 0.0206 (≈ 9.8 ng/mL) | 
11 | COc1ccc(/C=C/C(=O)C[C@@H]2O[C@H](COC(C)=O)[C@@H](OC(C)=O)[C@H](OC(C)=O)[C@H]2OC(C)=O)cc1 | 142 | 41.6 | 0.0207 (≈ 10.5 ng/mL) | 
12 | CC(=O)OC[C@H]1O[C@@H](CC(=O)/C=C/c2ccc(C(F)(F)F)cc2)[C@H](OC(C)=O)[C@@H](OC(C)=O)[C@@H]1OC(C)=O | 24.6 | 6.89 | 0.0034 (≈ 1.85 ng/mL) | RatioLC50 (Setaria cervi [5]): 3.5; Activity (Setaria cervi [6]): Active; Activity (Setaria cervi [7]): Active; Activity (Setaria cervi [8]): Active; IC50 [9]: 8.96 nM; MIC [9]: 0.0044 µM (≈ 2.4 ng/mL); inhibition [9]: Dose-dependent effect; Activity (Setaria cervi [10]): Active; Activity (Setaria cervi [11]): Active; Ratio CC50/IC50 [3]: 14.87; Activity (Wuchereria bancrofti): 40.6%; CC50 at 24 h [4]: 102 nM
13 | COc1ccccc1/C=C/C(=O)C[C@@H]1O[C@H](COC(C)=O)[C@@H](OC(C)=O)[C@H](OC(C)=O)[C@H]1OC(C)=O | 256 | 68.9 | 0.0351 (≈ 17.8 ng/mL) | 
14 | CC(=O)OC[C@H]1O[C@@H](CC(=O)/C=C/c2ccc([N+](=O)[O-])cc2)[C@H](OC(C)=O)[C@@H](OC(C)=O)[C@@H]1OC(C)=O | 71.2 | 23.9 | 0.0111 (≈ 5.8 ng/mL) | 
